“Also recorded” adds a separate entry of the source.
How the values were obtained:
[1] = test system: aPTT; assay: Activated partial thromboplastin time; type: in vivo, human; conditions: for Mean aPTT (± SEM) / aPTT % Change from baseline: immediately prior to the end of infusion
[2] = test system: PT/INR; assay: Prothrombin time/international normalized ratio; type: in vivo, human; conditions: part A and part B
[3] = Safety and tolerability, adverse events in healthy subjects; type: in vivo, human
[4] = Renal safety assessment; type: in vivo, human
[5] = test system: rabbit models; conditions: preclinical; cited from earlier work
[6] = Plasma pharmacokinetics of BMS-962212 after IV infusion; conditions: human, in vivo
[7] = part A 2-h IV infusion 1.5 mg h^−1
[8] = part A 2-h IV infusion 4 mg h^−1
[9] = part A 2-h IV infusion 10 mg h^−1
[10] = part A 2-h IV infusion 25 mg h^−1
[11] = part B 5-day IV infusion 1 mg h^−1, Japanese subjects
[12] = part B 5-day IV infusion 1 mg h^−1, non-Japanese subjects
[13] = part B 5-day IV infusion 3 mg h^−1, Japanese subjects
[14] = part B 5-day IV infusion 3 mg h^−1, non-Japanese subjects
[15] = part B 5-day IV infusion 9 mg h^−1, Japanese subjects
[16] = part B 5-day IV infusion 9 mg h^−1, non-Japanese subjects
[17] = part B 5-day IV infusion 20 mg h^−1, Japanese subjects
[18] = part B 5-day IV infusion 20 mg h^−1, non-Japanese subjects
[19] = part A panel 1, 1.5 mg h^−1 2-h IV infusion, peak at 12 h after initiation

CN1CCN(c2cccc3c2CCN(C(=O)/C=C/c2c(-n4cnnn4)ccc(Cl)c2F)[C@@H]3C(=O)Nc2ccc(C(=O)O)cc2)C(=O)C1 [BMS‐962212]
Mean aPTT (± SEM) [1, 7]: 45.8 ± 2.5 s | aPTT % Change from baseline [1, 7]: 35% | Mean aPTT (± SEM) [1, 8]: 49.2 ± 2.6 s | aPTT % Change from baseline [1, 8]: 51% | Mean aPTT (± SEM) [1, 9]: 53.0 ± 4.2 s | aPTT % Change from baseline [1, 9]: 81% | Mean aPTT (± SEM) [1, 10]: 61.3 ± 3.8 s | aPTT % Change from baseline [1, 10]: 94% | maximum mean aPTT change from baseline ([1]; part B 20 mg h^−1): 92% | Mean aPTT (± SEM) [1, 11]: 37.7 ± 2.0 s | aPTT % Change from baseline [1, 11]: 31% | Mean aPTT (± SEM) [1, 12]: 42.4 ± 1.8 s | aPTT % Change from baseline [1, 12]: 31% | Mean aPTT (± SEM) [1, 13]: 46.1 ± 1.2 s | aPTT % Change from baseline [1, 13]: 47% | Mean aPTT (± SEM) [1, 14]: 44.0 ± 1.9 s | aPTT % Change from baseline [1, 14]: 49% | Mean aPTT (± SEM) [1, 15]: 52.0 ± 1.3 s | aPTT % Change from baseline [1, 15]: 63% | Mean aPTT (± SEM) [1, 16]: 52.6 ± 6.8 s | aPTT % Change from baseline [1, 16]: 76% | Mean aPTT (± SEM) [1, 17]: 63.0 ± 4.9 s | aPTT % Change from baseline [1, 17]: 92% | Mean aPTT (± SEM) [1, 18]: 57.2 ± 4.0 s | aPTT % Change from baseline [1, 18]: 83% | time to maximal effect on aPTT after initiation of the IV infusion ([1]; part B, day 1): approximately 2 h | PT/INR change [2]: did not change; also recorded: no effect on PT/INR | tolerability ([3]; 2-h and 5-day IV infusions, healthy subjects): well tolerated | AE frequency: ecchymosis ([3]; BMS-962212 groups): 1.4% | AE frequency: flatulence ([3]; BMS-962212 groups): 1.4% | AE frequency: headache ([3]; BMS-962212 groups): 2.9% | AE frequency: infusion site pain or irritation ([3]; BMS-962212 groups): 5.9% | AE frequency: nausea ([3]; BMS-962212 groups): 2.9% | AE frequency: upper respiratory tract infection ([3]; BMS-962212 groups): 2.9% | frequency of AEs ([3]; Japanese subjects): 17.6% | subjects reporting AEs ([3]; all subjects assigned to BMS-962212 (12 of 68)): 17.6% | maximum tolerated dose ([3]; no dose-limiting AEs observed): not established | frequency of AEs ([3]; non-Japanese subjects): 29.4% | subjects reporting AEs ([3]; part A, subjects assigned to BMS-962212 (four of 34)): 11.7% | subjects reporting AEs ([3]; part B, subjects assigned to BMS-962212 (eight of 34)): 23.5% | bleeding ([3]; parts A and B): no signs of bleeding | deaths or serious AEs ([3]; parts A and B): No deaths or serious AEs were reported | iohexol plasma clearance (GFR) ([4]; panel 1A, 1.5 mg h^−1 2-h IV infusion, day −2 vs day 1, and vs placebo): No clinically relevant differences | serum creatinine mean increase [4, 19]: 0.28 mg/dL | serum creatinine median increase [4, 19]: 0.35 mg/dL | mean percentage decrease in eGFR (based on serum creatinine) ([4]; part A panel 1, 1.5 mg h^−1, 12 h postdose): −22.58% | antithrombotic efficacy and haemostasis [5]: shows antithrombotic efficacy at doses which preserve haemostasis | Tmax [6]: 1 to 2 h | half-life ([6]; 1 mg, t 1/2, part B 1 mg h^−1, Japanese ethnicity (n = 4), mean (CV%)): 7.32 h | half-life ([6]; 1 mg, t 1/2, part B 1 mg h^−1, Non-Japanese ethnicity (n = 4), mean (CV%)): 5.3 h | half-life ([6]; 3 mg, t 1/2, part B 3 mg h^−1, Japanese ethnicity (n = 4), mean (CV%)): 6.42 h | half-life ([6]; 3 mg, t 1/2, part B 3 mg h^−1, Non-Japanese ethnicity (n = 4), mean (CV%)): 6.05 h | half-life ([6]; 9 mg, t 1/2, part B 9 mg h^−1, Japanese ethnicity (n = 4), mean (CV%)): 8.28 h | half-life ([6]; 9 mg, t 1/2, part B 9 mg h^−1, Non-Japanese ethnicity (n = 4), mean (CV%)): 8.32 h | half-life ([6]; 20 mg, t 1/2, part B 20 mg h^−1, Japanese ethnicity (n = 4), mean (CV%)): 8.28 h | half-life ([6]; 20 mg, t 1/2, part B 20 mg h^−1, Non-Japanese ethnicity (n = 4), mean (CV%)): 7.23 h | AUC(0-inf) ([6]; iv, 1 mg h^−1): 6380 ng·h/mL | AUC(0-t) ([6]; iv, 1 mg h^−1): 6300 ng·h/mL | Cmax ([6]; iv, 1 mg h^−1): 58.3 ng/mL | Tmax ([6]; iv, 1 mg h^−1): 24 h | clearance ([6]; iv, 1 mg h^−1, CL, part B 5-day IV infusion 1 mg h^−1, geometric mean (CV%)): 314 mL/min | Vd ([6]; iv, 1 mg h^−1, Vz, part B 5-day IV infusion 1 mg h^−1, geometric mean (CV%)): 188 L | half-life ([6]; iv, 1 mg h^−1, t1/2, part B 5-day IV infusion 1 mg h^−1, geometric mean (CV%)): 6.25 h | AUC(0-inf) ([6]; iv, 1.5 mg h^−1): 180 ng·h/mL | AUC(0-t) ([6]; iv, 1.5 mg h^−1): 122 ng·h/mL | Cmax ([6]; iv, 1.5 mg h^−1): 81.9 ng/mL | Tmax ([6]; iv, 1.5 mg h^−1): 1.5 h
